Source: patent US9453026B2, “ACC inhibitors and uses thereof” (Gilead Apollo, Inc., priority 2011, dated 2016)
Converted amounts (≈) assume the structure as drawn. Where two headings read alike, the source gives them in different places.

How the values were obtained:
ACC2 [1] = biological target: ACC2 (Homo sapiens, UniProt O00763); experiment: In vitro ACC2 inhibition assay (ADP-Glo); assay type: biochemical; conditions: read-out: ACC2
How it was run: (§1)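 Enzyme (human ACC1 or ACC2) and compound, serially diluted 1:3 over 11 points from a 600 uM DMSO stock, were preincubated 15 min before substrate addition.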

HepG2 cells = experiment: [14C] Acetate Incorporation HepG2 Cellular Assay; assay type: cell-based; conditions: Homo sapiens; HepG2 cells, FIG. 4; read-out: IC50, incorporation of isotopically labeled acetate into fatty acids
Description: Compounds of the present invention were evaluated in a [^14C] Acetate Incorporation Assay. An exemplary procedure for the assay, which measures the incorporation of isotopically labeled acetate into fatty acids, follows. HepG2 cells were maintained in T-75 flasks containing DMEM supplemented with 2 mM 1-glutamine, penicillin G (100 units/ml), streptomycin 100 μg/ml with 10% FBS and incubated in a humidified incubator with 5% CO2 at 37° C. Cells were fed every 2-3 days. On Day 1. cells were seeded in 24 well plates at a density of 1.2×10^5 cells/ml/well with the growth medium. On Day 3 the medium was replaced with fresh medium containing 10% FBS. On Day 4 the medium was replaced with 0.5 ml of fresh medium containing test compound (in DMSO; final [DMSO] is 0.5%) and the cells were incubated at 37° C. for 1 hour. To one copy of plate, 4 ul of [2-^14C]acetate (56 mCi/mmol; 1 mCi/ml; PerkinElmer) was added and the cells were incubated at 37° C., 5% CO2 for 5 hrs. To a second copy of plate, 4 ul of cold acetate were added and the cells were incubated at 37° C., 5% CO2 for 5 hrs. This plate was used for protein concentration measurement. Medium was removed and placed in a 15 ml centrifuge tube (BD, Falcon/352096). Cells were rinsed with 1 ml PBS, then aspirated, and the rinse and aspiration steps were repeated. 0.5 ml of 0.1N NaOH were added to each well and let sit at RT to dissolve cell monolayer. The remaining cell suspension was pooled with medium. For the protein determination plate, an aliquot was removed for protein determination (25 ul). […] 5 ml petroleum ether was added per tube, shaken vigorously, centrifuged at 1000 rpm for 5 min, and 500 uL of the petroleum ether layer was transferred to tubes for Microbeta reading, then 2 ml Aquasol-2 were added to each tube, the tubes were shaken and counted with a Microbeta Liquid Scintillation Counter (Perkin Elmer).
The remaining petroleum ether layer was discarded and the aqueous phase reserved for fatty acid extractions. […] 2 ml of Aquasol-2 was added to each vial, and the vials were shaken and counted on a scintillation counter.

[2] = test system: C. parapsilosis ATCC 22019; experiment: Anti-Fungal Activity Assay (broth microtiter MIC); assay type: cell-based; conditions: 3 replicates, test compounds read at 48 h
Description: (§2) Compounds of the present invention were evaluated in an Anti-Fungal Activity Assay. An exemplary procedure for the assay, which measures the susceptibility of various Candida species to anti-fungal compounds, follows. Compounds to be tested (including fluconazole and amphotericin B) were dissolved in DMSO to obtain a solution having a concentration of 1 mg/mL. […] All species were grown from frozen stock by directly plating on to freshly prepared Sabouraud Dextrose agar (BD, Difco) and incubated overnight in ambient air at 35° C. for 24 h. A direct suspension was prepared in RPMI 1640+MOPS (Lonza, Biowhittaker) by taking individual colonies from the overnight cultures using sterile swabs soaked in sterile saline. The concentration of the suspension was determined using pre-determined standard curves. […] The original CLSI guidelines focused on reading Candida MICs after 48 h of incubation. As reading after only 24 h offers a clear advantage of patient care, QC limits are being established for all drugs at 24 h. That being said there are no known interpretive breakpoints for amphotericin B at 24 h and the current fluconazole interpretive breakpoints are based on a 48 h reading. The MIC breakpoints for the Pharmaron test compounds were recorded at 48 h, and for the soraphen the 24 h time-point was added. All MIC determinations were achieved by visually comparing the growth found in the antibiotic challenged wells to that of the growth control.

C. krusei ATCC 6258 = experiment: Anti-Fungal Activity Assay (broth microtiter MIC); assay type: cell-based; conditions: 3 replicates, test compounds read at 48 h
Description: as §2

C. albicans ATCC 90028 = experiment: Anti-Fungal Activity Assay (broth microtiter MIC); assay type: cell-based; conditions: 3 replicates, test compounds read at 48 h
Description: as §2

target protein (ACC) = experiment: Thermal Shift Assay (TSA); assay type: binding; conditions: FIG. 3
Excerpt: 103, 43, 15835-15840, the entirety of which is incorporated herein by reference.

ACC1 [3] = biological target: ACC1 (Homo sapiens, UniProt Q13085); experiment: In vitro ACC1 inhibition assay (ADP-Glo); assay type: biochemical; conditions: read-out: ACC1
How it was run: as §1

Candida species = experiment: Anti-Fungal Activity Assay, summary over Candida species; assay type: cell-based; conditions: summary of Table 3
Description: as §2

ACC = experiment: IC50 quoted for Soraphen A in the thermal shift text; assay type: biochemical
ACC2 [4] = conditions: ACC2 isolated from rat, mouse, monkey and human; cited from earlier work
ACC1 [5] = conditions: ACC1 isolated from rat, mouse, monkey and human; cited from earlier work
fatty acid synthesis = experiment: In Vivo Fatty Acid Synthesis Study ([C14]-acetate incorporated into rat liver tissue); conditions: FIG. 16
Description: Compounds of the present invention were also assayed in an In Vivo Fatty Acid Synthesis Study as described by Harwood et al. “Isozyme-nonselective N-Substituted Bipiperidylcarboxamide Acetyl-CoA Carboxylase Inhibitors Reduce Tissue Malonyl-CoA Concentrations, Inhibit Fatty Acid Synthesis, and Increase Fatty Acid Oxidation in Cultured Cells and in Experimental Animals” Journal of Biological Chemistry (2008) 278, 37099-37111. An exemplary procedure for the assay, which measures the amount of radioactive [C^14]-acetate incorporated into rat liver tissue, follows.
Animals given food ad water ad libitum were treated orally at a volume of 1.0 mL/200 g body weight (rat) with either an aqueous solution containing 0.5% methylcellulose (vehicle), or an aqueous solution containing 0.5% methylcellulose plus test compound. One to four hours after compound administration, animals received an intraperitoneal injection of 0.5 mL of [C^14]-acetate (64 uCi/mL; […]). […] The pooled organic fractions were transferred to liquid scintillation vials, dried under nitrogen, dissolved in 7 mL of Aquasol liquid scintillation fluid, and assessed for radioactivity using a Beckman 6500 liquid scintillation counter. Results were recorded as disintigrations per minute (DPM) per milligram of tissue.

[6] = test system: LNCaP (prostate cancer cell line) cells; experiment: Cancer Cell Viability Assay; assay type: cell-based, human; conditions: concentration of 5 uM, FIG. 5
Description: Compounds of the invention were also assayed in a Cancer Cell Viability Assay as described by Beckers et al. “Chemical Inhibition of Acetyl-CoA Carboxylase Induces Growth Arrest and Cytotoxicity Selectively in Cancer Cells” Cancer Res. (2007) 67, 8180-8187. An exemplary procedure for the assay, which measures the percentage of cancer cells surviving following administration of inhibitor compounds, follows.
LNCaP (prostate cancer cell line) cells plated at 4×10^5 per 6 cm dish were incubated at 37° C., and the following day they were treated with increasing concentrations of inhibitor compounds and incubated. Viable cells and the percentage of dead cells was counted and calculated every day for 5 days from day 0, using trypan blue staining.

[7] = Lodderomyces parapsilosis, ATCC22019, 48 h, read-out: MIC
[8] = Pichia kudriavzevii, ATCC6258, 48 h, read-out: MIC
[9] = Candida albicans, ATCC90028, 48 h, read-out: MIC

Sequence of ACC2 (Homo sapiens, UniProt O00763) (O00763 whole entry, species assumed): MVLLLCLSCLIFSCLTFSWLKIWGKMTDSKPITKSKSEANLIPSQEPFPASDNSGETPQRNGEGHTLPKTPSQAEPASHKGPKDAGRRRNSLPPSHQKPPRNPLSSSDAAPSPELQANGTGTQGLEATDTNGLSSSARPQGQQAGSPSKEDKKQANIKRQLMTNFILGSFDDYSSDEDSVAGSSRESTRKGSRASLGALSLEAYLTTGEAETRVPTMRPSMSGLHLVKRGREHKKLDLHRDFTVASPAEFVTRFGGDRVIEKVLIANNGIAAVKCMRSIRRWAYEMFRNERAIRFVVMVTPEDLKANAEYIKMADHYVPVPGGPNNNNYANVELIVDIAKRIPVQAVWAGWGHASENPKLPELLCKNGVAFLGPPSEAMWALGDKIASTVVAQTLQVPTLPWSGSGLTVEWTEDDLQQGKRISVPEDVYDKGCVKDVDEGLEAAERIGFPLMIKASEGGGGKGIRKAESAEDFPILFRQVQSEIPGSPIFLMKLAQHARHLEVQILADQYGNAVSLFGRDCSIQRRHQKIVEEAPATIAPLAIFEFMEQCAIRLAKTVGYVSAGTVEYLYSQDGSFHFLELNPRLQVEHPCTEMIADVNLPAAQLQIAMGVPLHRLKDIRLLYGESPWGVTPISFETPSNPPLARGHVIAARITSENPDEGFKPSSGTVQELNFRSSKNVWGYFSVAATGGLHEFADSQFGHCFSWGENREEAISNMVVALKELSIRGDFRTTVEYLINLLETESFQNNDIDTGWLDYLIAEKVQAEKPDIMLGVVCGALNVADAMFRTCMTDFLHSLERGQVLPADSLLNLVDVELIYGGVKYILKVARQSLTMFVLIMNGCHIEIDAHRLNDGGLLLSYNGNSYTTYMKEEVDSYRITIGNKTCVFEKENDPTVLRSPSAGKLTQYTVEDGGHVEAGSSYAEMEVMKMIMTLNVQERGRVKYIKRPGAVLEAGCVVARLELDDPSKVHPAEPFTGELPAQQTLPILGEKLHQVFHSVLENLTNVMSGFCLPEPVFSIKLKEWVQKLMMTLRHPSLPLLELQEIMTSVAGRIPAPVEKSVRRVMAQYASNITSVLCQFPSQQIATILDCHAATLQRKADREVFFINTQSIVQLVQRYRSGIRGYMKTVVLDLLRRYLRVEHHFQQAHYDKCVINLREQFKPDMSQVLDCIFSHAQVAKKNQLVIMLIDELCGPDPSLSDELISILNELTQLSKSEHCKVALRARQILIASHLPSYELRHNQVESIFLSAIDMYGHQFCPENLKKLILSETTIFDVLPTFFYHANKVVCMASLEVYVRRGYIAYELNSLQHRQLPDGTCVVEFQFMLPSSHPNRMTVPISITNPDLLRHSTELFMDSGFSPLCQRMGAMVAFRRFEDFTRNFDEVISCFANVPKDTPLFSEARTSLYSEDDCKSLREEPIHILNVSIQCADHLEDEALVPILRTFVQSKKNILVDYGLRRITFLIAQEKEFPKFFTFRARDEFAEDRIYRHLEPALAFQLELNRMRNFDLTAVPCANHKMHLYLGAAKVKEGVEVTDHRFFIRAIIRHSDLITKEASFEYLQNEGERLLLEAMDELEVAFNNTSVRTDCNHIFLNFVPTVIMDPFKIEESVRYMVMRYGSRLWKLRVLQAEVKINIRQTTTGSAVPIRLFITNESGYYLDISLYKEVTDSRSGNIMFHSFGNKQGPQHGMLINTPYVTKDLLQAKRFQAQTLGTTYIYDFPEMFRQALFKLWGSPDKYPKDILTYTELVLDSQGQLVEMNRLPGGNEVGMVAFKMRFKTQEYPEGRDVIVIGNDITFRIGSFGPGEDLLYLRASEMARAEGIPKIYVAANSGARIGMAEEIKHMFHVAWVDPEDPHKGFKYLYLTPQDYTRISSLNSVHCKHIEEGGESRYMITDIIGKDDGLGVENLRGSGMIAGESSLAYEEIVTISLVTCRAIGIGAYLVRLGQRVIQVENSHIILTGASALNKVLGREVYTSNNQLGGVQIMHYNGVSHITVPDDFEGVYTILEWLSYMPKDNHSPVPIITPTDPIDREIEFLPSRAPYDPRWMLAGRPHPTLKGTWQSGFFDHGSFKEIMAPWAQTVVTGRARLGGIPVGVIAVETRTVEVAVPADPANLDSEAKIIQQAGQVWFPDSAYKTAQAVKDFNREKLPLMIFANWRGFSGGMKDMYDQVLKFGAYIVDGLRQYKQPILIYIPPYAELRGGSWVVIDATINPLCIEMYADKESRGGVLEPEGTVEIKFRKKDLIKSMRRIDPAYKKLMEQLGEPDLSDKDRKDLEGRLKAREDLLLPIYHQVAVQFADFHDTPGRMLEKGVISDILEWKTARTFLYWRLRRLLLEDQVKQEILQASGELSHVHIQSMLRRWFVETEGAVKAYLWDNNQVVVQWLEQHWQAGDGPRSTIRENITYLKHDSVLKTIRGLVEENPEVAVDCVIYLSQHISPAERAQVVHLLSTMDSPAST

| SMILES | IC50 (ACC2 [1]) | IC50 (HepG2 cells) | MIC [2] | MIC [2, 7] | MIC (C. krusei ATCC 6258) | MIC (C. krusei ATCC 6258; [8]) | MIC (C. albicans ATCC 90028) | MIC (C. albicans ATCC 90028; [9]) | IC50 (ACC1 [3]) | anti-fungal activity MICs (Candida species) | thermal melting point change compared with Soraphen A (target protein (ACC)) | IC50 (ACC) | IC50 (ACC2 [4]) | IC50 (ACC1 [5]) | fatty acid (FA) synthesis in rats (fatty acid synthesis) | cell population growth [6] |
| --- | --- | --- | --- | --- | --- | --- | --- | --- | --- | --- | --- | --- | --- | --- | --- | --- |
| CO[C@H]1CCCC[C@@H](c2ccccc2)OC(=O)[C@@H](C)[C@@]2(O)O[C@H]([C@@H](C)[C@H](O)[C@H]2OC)[C@@H](C)/C=C/[C@H]1OC [Soraphen A] | – | – | – | – | – | – | – | – | – | – | – | 4 nM | – | – | – | – |
| O=C(c1c2ccccc2cc2ccccc12)N1CCC(N2CCC[C@@H](C(=O)N3CCOCC3)C2)CC1 [CP-640186] | – | – | – | – | – | – | – | – | – | – | – | – | ~60 nM | ~60 nM | – | – |

Second part, led by results:

| IC50 (ACC2 [1]) | IC50 (HepG2 cells) | MIC [2] | MIC [2, 7] | MIC (C. krusei ATCC 6258) | MIC (C. krusei ATCC 6258; [8]) | MIC (C. albicans ATCC 90028) | MIC (C. albicans ATCC 90028; [9]) | IC50 (ACC1 [3]) | anti-fungal activity MICs (Candida species) | SMILES | thermal melting point change compared with Soraphen A (target protein (ACC)) | IC50 (ACC) | IC50 (ACC2 [4]) | IC50 (ACC1 [5]) | fatty acid (FA) synthesis in rats (fatty acid synthesis) | cell population growth [6] |
| --- | --- | --- | --- | --- | --- | --- | --- | --- | --- | --- | --- | --- | --- | --- | --- | --- |
| < 100 nM | < 100 nM | 8 µg/mL (≈ 15.2 µM) | 8 µg/mL (≈ 15.2 µM) | 2 µg/mL (≈ 3.8 µM) | 2 µg/mL (≈ 3.8 µM) | 2 µg/mL (≈ 3.8 µM) | 2 µg/mL (≈ 3.8 µM) | < 100 nM | low ug/mL range | COc1ccccc1[C@H](Cn1c(=O)n(C(C)(C)C(N)=O)c(=O)c2c(C)c(-c3ncco3)sc21)OC(C)C [I-174, 2-[1-[(2R)-2-(2-methoxyphenyl)-2-(propan-2-yloxy)ethyl]-5-methyl-6-(1,3-oxazol-2-yl)-2,4-dioxo-1H,2H,3H,4H-thieno[2,3-d]pyrimidin-3-yl]-2-methylpropanamide] | equivalent to that of Soraphen A | – | – | – | – | – |
| < 100 nM | – | – | – | – | – | – | – | < 100 nM | – | COc1ccccc1[C@H](Cn1c(=O)n(C(C)(C)C(=O)O)c(=O)c2c(C)c(-c3ncco3)sc21)O[C@H]1CC[C@@H](O)CC1 [I-278, 2-[1-[(2R)-2-[(4-hydroxycyclohexyl)oxy]-2-(2-methoxyphenyl)ethyl]-5-methyl-6-(1,3-oxazol-2-yl)-2,4-doxo-1H,2H,3H,4H-thieno[2,3-d]pyrimidin-3-yl]-2-methylpropanoic acid] | – | – | – | – | dose-dependent decrease in FA synthesis | – |
| < 100 nM | < 100 nM | 8 µg/mL (≈ 15.2 µM) | 8 µg/mL (≈ 15.2 µM) | 2 µg/mL (≈ 3.79 µM) | 2 µg/mL (≈ 3.79 µM) | 2 µg/mL (≈ 3.79 µM) | 2 µg/mL (≈ 3.79 µM) | < 100 nM | low ug/mL range | COc1ccccc1[C@@H](Cn1c(=O)n(C(C)(C)C(=O)O)c(=O)c2c(C)c(-c3ncco3)sc21)OC(C)C [I-158, 2-[1-[(2S)-2-(2-methoxyphenyl)-2-(propan-2-yloxy)ethyl]-5-methyl-6-(1,3-oxazol-2-yl)-2,4-dioxo-1H,2H,3H,4H-thieno[2,3-d]pyrimidin-3-yl]-2-methylpropanoic acid] | equivalent to that of Soraphen A | – | – | – | – | completely inhibit cell population growth |
